Test results: PubChem BioAssay (NCI)
“And” between values parts separate entries of the source, which are not always exact repeats. Identical values can stand only once.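 Briefly, cells in 96-well plates were exposed to five compound concentrations for 48 h, and endpoints were estimated by linear interpolation. Here, GI50 denotes the concentration required for 50% inhibition of growth. TGI is the concentration that stops growth completely.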

How the values were obtained:
Assay in all cases: inhibition of tumour cell growth, NCI panel, 48 h
[1] = tested on: MDA-MB-231 breast
[2] = tested on: OVCAR-8 ovarian
[3] = tested on: SR leukemia
[4] = tested on: HCC-2998 colon
[5] = tested on: SK-MEL-28 melanoma
[6] = tested on: KM12 colon
[7] = tested on: UO-31 renal
[8] = tested on: A549 NSCLC
[9] = tested on: NCI-H23 lung
[10] = tested on: DU-145 prostate

| SMILES | GI50 [1] | TGI [1] | GI50 [2] | TGI [2] | GI50 [3] | TGI [3] | GI50 [4] | TGI [4] | GI50 [5] | TGI [5] | GI50 [6] | TGI [6] | GI50 [7] | TGI [7] | GI50 [8] | TGI [8] | GI50 [9] | TGI [9] | GI50 [10] | TGI [10] |
| --- | --- | --- | --- | --- | --- | --- | --- | --- | --- | --- | --- | --- | --- | --- | --- | --- | --- | --- | --- | --- |
| CC(=O)Nc1ccc(OC(C)=O)cc1 | < 0.01 µM | 2.04 µM | < 0.01 µM | > 49.1 µM | < 0.01 µM | 1.5 µM | < 0.0117 µM | 0.327 µM | < 0.01 µM | 48 µM | < 0.01 µM | 12.1 µM | 0.252 µM | 26 µM | < 0.01 µM | 30.8 µM | < 0.01 µM | 60.3 µM | < 0.0105 µM | 0.0172 µM |
| O=C(Nc1cn[nH]c1-c1nc2ccc(CN3CCOCC3)cc2[nH]1)NC1CC1 | 1.18 µM and 1.48 µM | 10.3 µM and > 10 µM | 1.74 µM and 5.19 µM | 9.63 µM and > 10 µM | 0.0277 µM and 0.0539 µM | 4.15 µM and 5.52 µM | 1.76 µM and > 10 µM | 3.81 µM and > 10 µM | 1.79 µM and > 10 µM | 5.7 µM and > 10 µM | 0.634 µM and 1.72 µM | 4.06 µM and > 10 µM | 0.851 µM and 2.33 µM | > 24.6 µM | – | 9.76 µM and > 10 µM | 1.45 µM and 7.06 µM | 5.16 µM and > 10 µM | 2.6 µM and > 10 µM | 14.7 µM and > 10 µM |
| O=C1c2ccccc2C(=O)c2c1oc1c2c(=O)[nH]c2ccc(Cl)cc21 | 0.165 µM | 0.519 µM | 0.389 µM | 2.29 µM | 0.496 µM | 3.94 µM | 0.637 µM | 2.55 µM | 0.339 µM | 1.23 µM | 0.447 µM | 3.02 µM | 0.195 µM | 0.605 µM | 1.03 µM | 2.92 µM | 0.355 µM | 1.83 µM | 0.279 µM | 0.781 µM |
| Cc1cc(=O)oc2cc3oc(N(C)c4ccccc4)nc(=O)c3cc12 | – | > 100 µM | – | > 100 µM | – | > 100 µM | – | > 100 µM | – | > 100 µM | – | > 100 µM | – | > 100 µM | – | > 100 µM | – | > 100 µM | – | > 100 µM |
| O=c1oc2ccc(Cl)cc2c(=O)n1-c1ccc(F)cc1F | 2.06 µM | 8.2 µM | 2.66 µM | > 100 µM | 1.04 µM | 9.75 µM | 2.89 µM | 8.72 µM | 1.52 µM | 10.5 µM | 2.72 µM | 10.2 µM | 1.22 µM | 7.97 µM | 2.08 µM | > 100 µM | 1.87 µM | 7.24 µM | 3.75 µM | 46.6 µM |
| CC1OC(CC(=O)O)Cc2c1c(O)c1c(O)cc(-c3cc(=O)c4c(=O)c5c(c(=O)c=4c3=O)CC(CC(=O)O)OC5C)c(O)c1c2O (stereo unspecified) | 29.4 µM | 64.9 µM | – | 75.9 µM | – | 53.9 µM | 18.9 µM | > 73.9 µM and 55.2 µM | 79.5 µM | 29.5 µM | 32.5 µM | > 100 µM | 30.3 µM | > 64.5 µM | 53.7 µM | > 100 µM | 32.7 µM | 33.9 µM | 26.2 µM | 96.2 µM |
| CCc1cccc(NC(=O)Nc2ccc(Oc3ccc4nc(NC(=O)OC)[nH]c4c3)cc2)c1 | 7.76 µM | > 25 µM | 5.79 µM | > 18.8 µM | 0.149 µM | > 25 µM | 11.7 µM | > 25 µM | 3.52 µM | 9.49 µM | 0.0985 µM | 4.94 µM | > 25 µM | > 25 µM | 5.35 µM | > 15.3 µM | 5.59 µM | > 20.8 µM | 4.94 µM | > 15.4 µM |
| Cc1ccc2[nH]c(O)c(N=Nc3ccccc3[N+](=O)[O-])c2c1 | – | 6.03 µM | – | > 33.9 µM | – | 32.6 µM | – | > 100 µM | – | > 100 µM | – | > 40.3 µM | – | 9.3 µM | – | > 100 µM | – | 77.1 µM | – | > 100 µM |
| CCCCc1n(Cc2ccc3ccccc3n2)cc[n+]1Cc1ccc2ccccc2n1 | 1.77 µM | 9.35 µM | 2.73 µM | 12 µM | 0.537 µM | 4.87 µM | 0.813 µM | 10.4 µM | 1.05 µM | 12.2 µM | 0.742 µM | 6.19 µM | 11.7 µM | 24.5 µM | 4.75 µM | 18.6 µM | 0.499 µM | 8.54 µM | 3.27 µM | 16.2 µM |
| C/C(CC(C)(C)N1CC1)=N\NC(=O)Nc1cccc2ccccc12 | 3.25 µM | 9.42 µM | 2.64 µM | 13.4 µM | 2.02 µM | 6.13 µM | 4.81 µM | 17 µM | 7.07 µM | 19.8 µM | 4.13 µM | 15.7 µM | 2.58 µM | 12.2 µM | 3.53 µM | 14.2 µM | 3.78 µM | 21.3 µM | 3.07 µM | 9.85 µM |
| COc1cc(NS(C)(=O)=O)ccc1Cc1c2ccccc2nc2ccccc12 | 1.28 µM | 2.78 µM | 0.146 µM | 1.37 µM | – | 0.139 µM | 0.433 µM | 2.35 µM | 0.672 µM | 2.36 µM | 0.396 µM | 2.01 µM | 0.126 µM | 1.02 µM | 0.0164 µM | 1.06 µM | 0.137 µM | 1.48 µM | 0.0571 µM | 0.649 µM |
| CCN1C(=O)N(CC)C2C1NN=c1s/c(=C\c3ccc(C(F)(F)F)cc3)c(=O)n12 (stereo unspecified) | 0.495 µM | 8.84 µM | 0.467 µM | 28.2 µM | 0.204 µM | 5.77 µM | 0.354 µM | 11.6 µM | 2.4 µM | 38.7 µM | 0.309 µM | > 34.9 µM | 0.839 µM | > 42.9 µM | 0.395 µM | > 43.1 µM | 0.585 µM | > 64.4 µM | 0.41 µM | > 32.1 µM |
| Cc1ccc(-c2nc(/C=N/Nc3cc(C)nc4ccc(Br)cc34)c(C)o2)cc1 | 1.98 µM | 3.77 µM | 2.08 µM | 4.4 µM | 2.67 µM | 7.71 µM | 1.74 µM | 3.28 µM | 1.73 µM | 3.25 µM | 1.89 µM | 3.6 µM | 1.65 µM | 3.08 µM | 1.82 µM | 3.52 µM | 2.09 µM | 4.75 µM | 1.8 µM | 3.36 µM |
| CCOC(=O)c1c2c(n3ccc(NC(=O)CCN4CCCCC4)cc13)C(=O)c1ncccc1C2=O | 1.79 µM | 3.77 µM | 1.28 µM | 3.71 µM | < 0.01 µM | 1.2 µM | 1.53 µM | 3.24 µM | 0.668 µM | 2.38 µM | 1.22 µM | 2.76 µM | 0.0315 µM | 1.46 µM | 0.0547 µM | 2.81 µM | 0.0369 µM | 2.03 µM | 1.2 µM | 2.54 µM |
| FC(F)(F)c1nc(SCc2ccc(Cl)cc2)n[nH]1 | – | > 100 µM | – | > 100 µM | – | > 100 µM | – | > 100 µM | – | > 100 µM | – | > 100 µM | – | > 100 µM | – | > 100 µM | – | > 100 µM | – | > 100 µM |
| CCc1[nH]nc(C(N)=O)c1N=NN(C)C | – | > 100 µM | – | > 100 µM | – | 38.9 µM | – | > 100 µM | – | > 100 µM | – | > 100 µM | – | > 100 µM | – | > 100 µM | – | > 100 µM | – | > 100 µM |
| O=C(Nc1ccccc1Cl)c1ccc(NC2=C(Cl)C(=O)N(C3CCCCC3)C2=O)cc1 | 13.7 µM | 33.3 µM | 2.99 µM | 18.5 µM | 3.03 µM | 7.87 µM | 3.55 µM | 6.05 µM | 17.6 µM | 49.6 µM | 16.9 µM | 35.7 µM | 16.6 µM | 42.3 µM | 13.3 µM | 32.9 µM | 4.92 µM | 21.2 µM | 6.78 µM | 23.9 µM |
| CC1=C2[C@@H](CC1)[C@]1(C)O[C@@](C(C)C)(C[C@H]1OC(=O)CO)[C@H]2OC(=O)CCCc1ccccc1 | 12.9 µM | 31.8 µM | 4.58 µM | 26.8 µM | 11.3 µM | 36.6 µM | 12 µM | 24.6 µM | 13.9 µM | 26.8 µM | 5.97 µM | 20.1 µM | 3.36 µM | 14.7 µM | 6.96 µM | 41.5 µM | 11.3 µM | 27.6 µM | 8.82 µM | 20.9 µM |
| CCN(CC)CCCNc1n[n+]([O-])c2ccccc2[n+]1[O-] | – | 31.4 µM | – | 29.3 µM | – | 76.2 µM | – | 15.7 µM | – | > 100 µM | – | 63 µM | – | > 100 µM | – | 39.7 µM | – | 46.9 µM | – | 66.9 µM |
